The numbers were not newly measured in EP1569663B1, “IFOSFAMIDE COMPOSITIONS FOR PARENTERAL ADMINISTRATION AND A PROCESS FOR THEIR PREPARATION” (Bharat Serums & Vaccines Ltd., priority 2002, dated 2004), which cites them from elsewhere.

The conditions of series [1]: in water.
A further series deals with mouse. To be noted: intravenous administration.

Each structure is given as a SMILES string.

`O=P1(NCCCl)OCCCN1CCCl` (centres unmarked) [Ifosfamide, 3-(2-chtoroethyl)-2-[(2-chloroethyl)amino]-tetrahydro-2H-1,3,2-oxazaphosphorin-2-oxide]: the water solubility result in series [1] is reported as “about 100 mg/ml”. For the same compound, the LD50 in the series on mouse was 338 mg/kg body weight.
